We go through 13 compounds from PubChem BioAssay AID212 (DTP/NCI, 2004).

For the assay, the system named is BDF1 mice, colon carcinoma 38 sc, T/C %. Put plainly: NCI In Vivo Anticancer Drug Screen. Data for tumor model Colon Carcinoma 38 (subcutaneous) in B6D2F1 (BDF1) mice. The note with it: endpoint: median tumor weight (est.), higher = larger tumour. Summed up:
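Ratio of survival or tumor size, compound-treated animals relative to vehicle controls, in tumor-bearing mice.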

The mark [1] stands for this setting: dose: 0.5 mg/kg/injection, schedule: Q07DX002 (ip), vehicle: water.
Where [2] appears, read: dose: 1.0 mg/kg/injection, schedule: Q07DX002 (ip), vehicle: water.
[3] abbreviates: dose: 2.0 mg/kg/injection, schedule: Q07DX002 (ip), vehicle: water.
Setting [4] is: dose: 25.0 mg/kg/injection, schedule: Q07DX002 (ip), vehicle: Klucel (hydroxypropylcellulose) (HPC).
Setting [5] is: dose: 100.0 mg/kg/injection, schedule: Q07DX002 (ip), vehicle: Klucel (hydroxypropylcellulose) (HPC).
Setting [6] is: dose: 200.0 mg/kg/injection, schedule: Q07DX002 (ip), vehicle: Klucel (hydroxypropylcellulose) (HPC).
Setting [7] is: dose: 400.0 mg/kg/injection, schedule: Q07DX002 (ip), vehicle: Klucel (hydroxypropylcellulose) (HPC).
[8] abbreviates: dose: 100.0 mg/kg/injection, schedule: Q07DX002 (ip), vehicle: saline.
Where [9] appears, read: dose: 12.5 mg/kg/injection, schedule: Q07DX002 (ip), vehicle: Klucel (hydroxypropylcellulose) (HPC).
[10] abbreviates: dose: 50.0 mg/kg/injection, schedule: Q07DX002 (ip), vehicle: Klucel (hydroxypropylcellulose) (HPC).

Molecules are shown by their SMILES. “And” between values parts separate entries of the source, which are not always exact repeats. Equal values may be shown once. Results filed as inconclusive are left out. *1 amine or outer side, *2 acyl side, *3 side chain or, on linkers, in order; H or OH if unused. Where a SMILES comes first, the peptide text is derived from it. [ ]: non-standard residue; d: D form. The star is where a group is joined. X2 = CCC(=O)CC1CC(C)CC(C(=O)[*:2])N1[*:1]; X1 = CCCCCCCCC(C)C(=O)*; Aib = CC(C)(N)C(=O)O; X3 = CC(CN(C)CCO)N*

Consider `CO[C@@]12[C@H](COC(N)=O)C3=C(C(=O)C(C)=C(N)C3=O)N1C[C@@H]1N[C@@H]12`, for which the T/C is 62 % of control and 70 % of control (dose: 0.5 mg/kg/injection, schedule: Q07DX002 (ip), vehicle: saline); 90 % of control under setting [1]; 85 % of control (dose: 1.0 mg/kg/injection, schedule: Q07DX002 (ip), vehicle: clinical formulation); 58 % of control and 61 % of control (dose: 1.0 mg/kg/injection, schedule: Q07DX002 (ip), vehicle: saline); 80 % of control under setting [2]; 84 % of control (dose: 2.0 mg/kg/injection, schedule: Q07DX002 (ip), vehicle: clinical formulation). Besides, the T/C is, setting by setting: (dose: 2.0 mg/kg/injection, schedule: Q07DX002 (ip), vehicle: saline) 35 % of control and 51 % of control; under setting [3], 30 % of control; (dose: 3.75 mg/kg/injection, schedule: Q07DX002 (oral), vehicle: water) 112 % of control; (dose: 4.0 mg/kg/injection, schedule: Q07DX002 (ip), vehicle: clinical formulation) 20 % of control; (dose: 4.0 mg/kg/injection, schedule: Q07DX002 (ip), vehicle: saline) 8 % of control and 22 % of control; (dose: 4.0 mg/kg/injection, schedule: Q07DX002 (ip), vehicle: water) 13 % of control. For the same compound, the T/C runs as follows: (dose: 7.5 mg/kg/injection, schedule: Q07DX002 (oral), vehicle: water) 93 % of control; (dose: 15.0 mg/kg/injection, schedule: Q07DX002 (oral), vehicle: water) 21 % of control; (dose: 30.0 mg/kg/injection, schedule: Q07DX002 (oral), vehicle: water) 28 % of control.
For `Cc1ccc(S(=O)(=O)N/N=C/C(Br)=C(/Br)C(=O)O)cc1`, the T/C by setting is: under setting [4], 94 % of control; under setting [5], 124 % of control and 100 % of control; under setting [6], 88 % of control; under setting [7], 72 % of control.
Turning to `CC(C)C(N)C(=O)Nc1nncs1` (centres undefined), the T/C was 108 % of control and 98 % of control under setting [8]; 68 % of control and 88 % of control (dose: 200.0 mg/kg/injection, schedule: Q07DX002 (ip), vehicle: saline); 45 % of control and 48 % of control (dose: 400.0 mg/kg/injection, schedule: Q07DX002 (ip), vehicle: saline).
In the case of `CNc1nc2c(N)ncnc2n1C1OC(CO)C(O)C1O` (centres undefined), the T/C (dose: 12.5 mg/kg/injection, schedule: Q07DX002 (ip), vehicle: saline) is 103 % of control.
In the case of `NC(=O)c1ncn2c(=O)n(CCCl)nnc12`, the T/C reads like this: (dose: 6.0 mg/kg/injection, schedule: Q07DX002 (ip), vehicle: saline) 110 % of control; (dose: 6.25 mg/kg/injection, schedule: Q07DX002 (ip), vehicle: Klucel (hydroxypropylcellulose) (HPC)) 43 % of control and 65 % of control; (dose: 6.25 mg/kg/injection, schedule: Q07DX002 (ip), vehicle: saline) 47 % of control; (dose: 12.0 mg/kg/injection, schedule: Q07DX002 (ip), vehicle: saline) 51 % of control; under setting [9], 22 % of control and 45 % of control; under setting [4], 21 % of control and 36 % of control. Besides, the T/C by setting is: (dose: 25.0 mg/kg/injection, schedule: Q07DX002 (ip), vehicle: saline) 55 % of control and 59 % of control; under setting [10], 2 % of control; under setting [8], 2 % of control.
In the case of `CC(=O)N(C)C`, the T/C (dose: 225.0 mg/kg/injection, schedule: Q07DX002 (ip), vehicle: saline) was 123 % of control; the T/C (dose: 900.0 mg/kg/injection, schedule: Q07DX002 (ip), vehicle: saline) was 111 % of control and 100 % of control; the T/C (dose: 1800.0 mg/kg/injection, schedule: Q07DX002 (ip), vehicle: saline) was 62 % of control and 84 % of control; the T/C (dose: 3600.0 mg/kg/injection, schedule: Q07DX002 (ip), vehicle: saline) was 46 % of control and 65 % of control.
For the compound `Cc1ccc(S(=O)(=O)N/N=C/C(=O)O)cc1`, the T/C is 116 % of control (dose: 12.5 mg/kg/injection, schedule: Q07DX002 (ip), vehicle: other); 165 % of control (dose: 25.0 mg/kg/injection, schedule: Q07DX002 (ip), vehicle: other); 75 % of control (dose: 50.0 mg/kg/injection, schedule: Q07DX002 (ip), vehicle: other); 90 % of control (dose: 100.0 mg/kg/injection, schedule: Q07DX002 (ip), vehicle: other); 178 % of control (dose: 200.0 mg/kg/injection, schedule: Q07DX002 (ip), vehicle: other).
Turning to `CC(=O)C(O)N1C(=O)C=CC1=O` (centres undefined), the T/C runs as follows: (dose: 0.62 mg/kg/injection, schedule: Q07DX003 (ip), vehicle: saline) 109 % of control; (dose: 1.25 mg/kg/injection, schedule: Q07DX003 (ip), vehicle: saline) 76 % of control; (dose: 2.5 mg/kg/injection, schedule: Q07DX003 (ip), vehicle: saline) 111 % of control; (dose: 5.0 mg/kg/injection, schedule: Q07DX003 (ip), vehicle: saline) 108 % of control.
With `COc1cccc2c1C(=O)c1c(O)c3c(c(O)c1C2=O)C[C@@](O)(C(C)=O)C[C@@H]3OC1CC(N)C(O)C(C)O1` (some centres undefined), the T/C by setting is: under setting [1], 75 % of control; (dose: 0.5 mg/kg/injection, schedule: Q07DX003 (ip), vehicle: saline) 62 % of control and 76 % of control; under setting [2], 230 % of control; (dose: 1.0 mg/kg/injection, schedule: Q07DX003 (ip), vehicle: saline) 55 % of control and 76 % of control; under setting [3], 117 % of control; (dose: 2.0 mg/kg/injection, schedule: Q07DX003 (ip), vehicle: saline) 78 % of control and 91 % of control.
`Cc1ccc2c(c1)N=C(Nc1ccccc1)N=S2(C)=O` (centres undefined): the T/C is 76 % of control (dose: 12.5 mg/kg/injection, schedule: Q07DX002 (ip), vehicle: saline with Tween-80); 85 % of control (dose: 25.0 mg/kg/injection, schedule: Q07DX002 (ip), vehicle: saline with Tween-80); 82 % of control (dose: 50.0 mg/kg/injection, schedule: Q07DX002 (ip), vehicle: saline with Tween-80); 105 % of control (dose: 200.0 mg/kg/injection, schedule: Q07DX002 (ip), vehicle: saline with Tween-80).
For `CCCCCCCCC(C)C(=O)N1CCCC1C(=O)N1C(CC(=O)CC)CC(C)CC1C(=O)NC(C)C(=O)NC(C)(C)C(=O)NC(C)(C)C(=O)NC(C(=O)NC(C)C(=O)NC(C)(C)C(=O)NC(C)(C)C(=O)NC(C)CN(C)CCO)C(C)CC` (centres undefined) (X1-P[X2]A[Aib][Aib]IA[Aib][Aib]-X3; configuration not given here), the T/C reads like this: (dose: 0.31 mg/kg/injection, schedule: Q07DX002 (ip), vehicle: Klucel (hydroxypropylcellulose) (HPC)) 123 % of control; (dose: 1.25 mg/kg/injection, schedule: Q07DX002 (ip), vehicle: Klucel (hydroxypropylcellulose) (HPC)) 86 % of control and 91 % of control; (dose: 2.5 mg/kg/injection, schedule: Q07DX002 (ip), vehicle: Klucel (hydroxypropylcellulose) (HPC)) 119 % of control; (dose: 5.0 mg/kg/injection, schedule: Q07DX002 (ip), vehicle: Klucel (hydroxypropylcellulose) (HPC)) 103 % of control and 104 % of control; (dose: 10.0 mg/kg/injection, schedule: Q07DX002 (ip), vehicle: Klucel (hydroxypropylcellulose) (HPC)) 102 % of control.
As for `OC1CCCC2CCC[N-]C12.OC1CCCC2CCC[N-]C12.[Mn+2]` (centres undefined), the T/C under setting [9] is 76 % of control; the T/C under setting [10] is 91 % of control; the T/C under setting [5] was 63 % of control and 84 % of control; the T/C under setting [6] is 86 % of control and 98 % of control; the T/C under setting [7] was 69 % of control.
Regarding `C=CC(C)NC(=S)NNC(=S)NC` (centres undefined), the T/C is 97 % of control (dose: 50.0 mg/kg/injection, schedule: Q07DX002 (ip), vehicle: saline + alcohol); 112 % of control (dose: 100.0 mg/kg/injection, schedule: Q07DX002 (ip), vehicle: saline + alcohol); 104 % of control (dose: 200.0 mg/kg/injection, schedule: Q07DX002 (ip), vehicle: saline + alcohol); 86 % of control (dose: 400.0 mg/kg/injection, schedule: Q07DX002 (ip), vehicle: saline + alcohol).
